According to PMC11211886 (Frontiers in Pharmacology, 2024):

What was measured:
[1] = molecular target: T1, OATP1B1 (Homo sapiens, UniProt Q9Y6L6); assay: OATP1B1 inhibition, β-estradiol 17-(β-D-glucuronide) uptake in transfected HEK293 cells
T1 sequence (Q9Y6L6 1-691): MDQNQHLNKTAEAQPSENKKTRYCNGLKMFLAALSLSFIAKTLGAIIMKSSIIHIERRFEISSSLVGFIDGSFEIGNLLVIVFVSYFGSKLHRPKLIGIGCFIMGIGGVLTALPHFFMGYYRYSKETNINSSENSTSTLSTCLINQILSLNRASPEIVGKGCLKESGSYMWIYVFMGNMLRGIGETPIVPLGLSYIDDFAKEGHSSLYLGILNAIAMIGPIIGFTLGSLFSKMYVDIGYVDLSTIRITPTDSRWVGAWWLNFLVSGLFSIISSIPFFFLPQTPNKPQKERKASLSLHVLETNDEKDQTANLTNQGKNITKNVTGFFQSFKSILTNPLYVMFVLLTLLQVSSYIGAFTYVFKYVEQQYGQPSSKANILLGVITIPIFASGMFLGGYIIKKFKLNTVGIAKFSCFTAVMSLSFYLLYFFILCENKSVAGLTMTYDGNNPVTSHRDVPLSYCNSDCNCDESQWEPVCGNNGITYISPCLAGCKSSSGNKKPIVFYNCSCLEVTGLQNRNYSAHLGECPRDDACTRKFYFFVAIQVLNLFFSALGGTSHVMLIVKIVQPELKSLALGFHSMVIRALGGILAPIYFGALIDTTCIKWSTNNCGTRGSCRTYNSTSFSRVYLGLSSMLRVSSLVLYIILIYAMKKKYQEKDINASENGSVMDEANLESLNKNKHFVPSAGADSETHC
Method: (§1) The pre-incubation solutions were removed, and incubation solutions containing the inhibitors and probe substrates (or transport buffer containing an equal volume of vehicle control and probe substrates) were added and incubated at 37°C for 2 min (5 min for OATP1B3). The probe substrate for OAT1 was 4-aminohippuric acid (10 μM), for OAT3 was estrone 3-sulfate (10 μM), for OCT2 was metformin (100 μM), for OATP1B1 was β-estradiol 17-(β-D-glucuronide) (5 μM), for OATP1B3 was β-estradiol 17-(β-D-glucuronide) (10 μM), and for MATE1 and MATE2-K was tetraethylammonium (10 μM). After incubation, cells were washed three times with ice-cold transport buffer (25 mM HEPES, pH 7.4, pH 8.0 for overexpressing MATE1 and MATE2-K HEK293 cells) and lysed in distilled water. The concentrations of probe substrates were determined by LC-MS/MS, and a BCA Kit (Solarbio ®Life Sciences, Beijing, China) was used to determine the protein content in the cell lysate.
(§2) where C is the concentration of the drug in the cell lysate (nM), P is the protein concentration of the cell lysate (mg/mL), and T is the incubation time (minute). Uptake ratetest compound is the uptake rate of the substrate in the presence of the test compound. Uptake ratevehicle control is the uptake rate of the substrate in the presence of the vehicle control. Uptake ratepassive is the uptake rate of the substrate in the presence of the positive inhibitor at the top test concentration.

[2] = molecular target: T2, OAT1 (Homo sapiens, UniProt Q4U2R8); assay: in vitro
T2 sequence (Q4U2R8 1-563): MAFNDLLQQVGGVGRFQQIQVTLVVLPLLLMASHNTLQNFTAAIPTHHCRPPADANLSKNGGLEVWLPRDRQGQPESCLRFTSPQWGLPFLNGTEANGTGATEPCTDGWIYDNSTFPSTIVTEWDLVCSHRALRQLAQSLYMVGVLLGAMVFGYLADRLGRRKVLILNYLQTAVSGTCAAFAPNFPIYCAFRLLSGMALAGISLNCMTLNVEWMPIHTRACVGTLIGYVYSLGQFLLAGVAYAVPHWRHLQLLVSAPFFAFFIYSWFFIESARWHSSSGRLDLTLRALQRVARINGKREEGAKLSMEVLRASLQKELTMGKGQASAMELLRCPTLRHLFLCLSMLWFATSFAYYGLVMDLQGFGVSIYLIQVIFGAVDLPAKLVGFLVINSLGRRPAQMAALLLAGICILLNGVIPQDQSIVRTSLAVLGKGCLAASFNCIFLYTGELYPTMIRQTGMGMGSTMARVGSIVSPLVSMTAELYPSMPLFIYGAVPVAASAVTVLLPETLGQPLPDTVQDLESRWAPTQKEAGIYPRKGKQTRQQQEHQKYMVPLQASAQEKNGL
Method: as §1, §2

C[C@H](Nc1ncnc(N)c1C#N)c1cc2ncc(Cl)n2nc1-c1ccccc1 [Amdizalisib]
IC50 [1]: 7.27 µM | Percentage transported ([1]; human, 2 min, 0.3 μM, pH 7.4): 113% | Uptake rate ([1]; human, 2 min, 0.3 μM, pH 7.4): 59.0±1.42 pmol/mg protein/min | Percentage transported ([1]; human, 2 min, 1 μM, pH 7.4): 105% | Uptake rate ([1]; human, 2 min, 1 μM, pH 7.4): 55.1±2.95 pmol/mg protein/min | Percentage transported ([1]; human, 2 min, 3 μM, pH 7.4): 86.5% | Uptake rate ([1]; human, 2 min, 3 μM, pH 7.4): 47.2±3.13 pmol/mg protein/min | Percentage transported ([1]; human, 2 min, 10 μM, pH 7.4): 32.7% | Uptake rate ([1]; human, 2 min, 10 μM, pH 7.4): 19.3±4.10 pmol/mg protein/min | Percentage transported ([1]; human, 2 min, 30 μM, pH 7.4): 8.04% | Percentage transported ([1]; human, 2 min, 100 μM, pH 7.4): -3.17% | Uptake rate ([1]; human, 2 min, 100 μM, pH 7.4): 1.46±0.141 pmol/mg protein/min | calculated R value (OATP1B1) ([1]; human, 2 min, pH 7.4): 3.8 | inhibition at 2 min, 0.3 µM ([1]; human, pH 7.4): -12.5% | inhibition at 2 min, 1 µM ([1]; human, pH 7.4): -4.64% | inhibition at 2 min, 3 µM ([1]; human, pH 7.4): 13.5% | inhibition at 2 min, 10 µM ([1]; human, pH 7.4): 67.3% | inhibition at 2 min, 30 µM ([1]; human, pH 7.4): 92% | inhibition at 2 min, 100 µM ([1]; human, pH 7.4): 103% | IC50 [2]: 4.14 µM | Percentage transported ([2]; OAT1, compound 0.3 μM): 96.4% | Uptake rate ([2]; OAT1, compound 0.3 μM): 489±79.6 pmol/mg protein/min | Percentage transported ([2]; OAT1, compound 1 μM): 91.6% | Uptake rate ([2]; OAT1, compound 1 μM): 467±34.8 pmol/mg protein/min | Percentage transported ([2]; OAT1, compound 3 μM): 50.9% | Uptake rate ([2]; OAT1, compound 3 μM): 278±37.1 pmol/mg protein/min | Percentage transported ([2]; OAT1, compound 10 μM): 33.3% | Uptake rate ([2]; OAT1, compound 10 μM): 196±6.18 pmol/mg protein/min | Percentage transported ([2]; OAT1, compound 30 μM): 7.47% | Uptake rate ([2]; OAT1, compound 30 μM): 76.5±17.7 pmol/mg protein/min | Percentage transported ([2]; OAT1, compound 100 μM): -7.21% | Uptake rate ([2]; OAT1, compound 100 μM): 8.38±1.24 pmol/mg protein/min | inhibition at 2 min, 0.3 µM ([2]; human, pH 7.4): 3.65% | inhibition at 2 min, 1 µM ([2]; human, pH 7.4): 8.44% | inhibition at 2 min, 3 µM ([2]; human, pH 7.4): 49.1% | inhibition at 2 min, 10 µM ([2]; human, pH 7.4): 66.7% | inhibition at 2 min, 30 µM ([2]; human, pH 7.4): 92.5% | inhibition at 2 min, 100 µM ([2]; human, pH 7.4): 107% | calculated R value (OAT1) ([2]; renal OATs): < 1.1
